Test results from BindingDB's records for doi:10.1016/j.ejphar.2004.01.015 (Abbott Laboratories, 2004).
Several values for one entry are separate records, joined by “and”; a condition that tells them apart may be missing. Identical values can stand only once.

Tests used:
Hrh3 protein = Hrh3 protein (Rattus norvegicus, UniProt Q5PPG3)
Histamine H2 receptor = Histamine H2 receptor (Homo sapiens, UniProt P25021)
Histamine H1 receptor = Histamine H1 receptor (Homo sapiens, UniProt P35367)
Histamine H3 receptor = Histamine H3 receptor (Homo sapiens, UniProt Q9Y5N1)
Sequence of Histamine H3 receptor (Q9Y5N1 whole entry): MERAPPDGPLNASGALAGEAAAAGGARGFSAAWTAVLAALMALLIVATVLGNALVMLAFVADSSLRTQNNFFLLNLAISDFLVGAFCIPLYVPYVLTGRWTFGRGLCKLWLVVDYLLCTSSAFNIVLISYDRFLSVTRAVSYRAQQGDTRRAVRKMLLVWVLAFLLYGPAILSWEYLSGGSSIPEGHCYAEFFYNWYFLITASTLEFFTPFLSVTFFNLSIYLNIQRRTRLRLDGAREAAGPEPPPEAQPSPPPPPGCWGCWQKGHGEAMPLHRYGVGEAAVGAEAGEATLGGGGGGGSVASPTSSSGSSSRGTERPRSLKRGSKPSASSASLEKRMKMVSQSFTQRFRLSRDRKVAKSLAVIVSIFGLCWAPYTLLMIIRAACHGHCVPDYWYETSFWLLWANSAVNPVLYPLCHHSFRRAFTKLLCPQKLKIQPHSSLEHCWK

Histamine H4 receptor = Histamine H4 receptor (Homo sapiens, UniProt Q9H3N8)
Sequence of Histamine H4 receptor (Q9H3N8 whole entry): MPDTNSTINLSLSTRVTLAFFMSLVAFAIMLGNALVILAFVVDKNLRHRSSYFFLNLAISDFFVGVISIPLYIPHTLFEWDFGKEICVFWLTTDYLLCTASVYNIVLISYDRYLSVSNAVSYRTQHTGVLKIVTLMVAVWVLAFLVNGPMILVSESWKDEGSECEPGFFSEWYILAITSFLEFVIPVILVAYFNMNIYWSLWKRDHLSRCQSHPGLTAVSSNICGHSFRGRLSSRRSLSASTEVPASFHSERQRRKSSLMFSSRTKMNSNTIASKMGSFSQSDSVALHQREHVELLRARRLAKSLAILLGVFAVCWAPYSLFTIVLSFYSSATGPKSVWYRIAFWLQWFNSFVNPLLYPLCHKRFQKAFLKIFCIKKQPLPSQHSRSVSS

Sequence of Histamine H1 receptor (P35367 whole entry): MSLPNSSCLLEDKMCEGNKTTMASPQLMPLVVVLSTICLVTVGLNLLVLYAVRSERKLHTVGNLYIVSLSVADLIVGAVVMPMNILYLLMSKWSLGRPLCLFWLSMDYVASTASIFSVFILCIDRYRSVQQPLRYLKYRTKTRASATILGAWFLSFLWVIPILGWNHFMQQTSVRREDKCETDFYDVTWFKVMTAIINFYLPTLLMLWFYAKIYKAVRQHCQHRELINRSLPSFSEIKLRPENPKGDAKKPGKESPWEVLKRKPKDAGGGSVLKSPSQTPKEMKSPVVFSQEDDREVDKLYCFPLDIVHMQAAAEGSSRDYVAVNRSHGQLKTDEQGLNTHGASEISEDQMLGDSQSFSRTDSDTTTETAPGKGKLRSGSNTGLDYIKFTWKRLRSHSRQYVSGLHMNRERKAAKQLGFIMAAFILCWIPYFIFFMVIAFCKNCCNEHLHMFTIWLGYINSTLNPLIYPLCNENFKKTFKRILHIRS
Sequence of Hrh3 protein (Q5PPG3 whole entry): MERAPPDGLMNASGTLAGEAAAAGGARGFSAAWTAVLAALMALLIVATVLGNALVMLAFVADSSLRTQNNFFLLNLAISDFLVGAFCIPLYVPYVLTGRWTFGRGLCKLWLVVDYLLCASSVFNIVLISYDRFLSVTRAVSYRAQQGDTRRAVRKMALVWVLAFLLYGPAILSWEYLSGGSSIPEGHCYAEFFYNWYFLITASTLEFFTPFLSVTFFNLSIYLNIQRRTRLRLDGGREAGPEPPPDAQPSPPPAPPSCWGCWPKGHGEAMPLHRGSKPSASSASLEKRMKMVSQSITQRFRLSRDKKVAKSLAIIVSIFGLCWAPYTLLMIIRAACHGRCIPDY
Sequence of Histamine H2 receptor (P25021 whole entry): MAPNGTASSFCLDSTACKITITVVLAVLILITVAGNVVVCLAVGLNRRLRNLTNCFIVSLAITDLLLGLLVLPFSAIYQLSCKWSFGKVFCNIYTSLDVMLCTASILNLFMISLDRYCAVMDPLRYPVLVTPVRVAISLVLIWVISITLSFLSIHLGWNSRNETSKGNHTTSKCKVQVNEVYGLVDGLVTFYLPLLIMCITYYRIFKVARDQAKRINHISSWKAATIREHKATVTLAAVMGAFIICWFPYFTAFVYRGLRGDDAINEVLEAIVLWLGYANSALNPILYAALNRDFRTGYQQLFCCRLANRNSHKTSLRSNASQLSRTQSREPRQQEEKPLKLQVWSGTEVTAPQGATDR

NCCc1c[nH]cn1 [[3H]histamine]
Ki (Hrh3 protein): 4.9 nM and 2.66 nM

S=C(NC1CCCCC1)N1CCC(c2cnc[nH]2)CC1
Ki (Histamine H2 receptor): > 10000 nM | Ki (Hrh3 protein): 7.5 nM and 3.21 nM | Ki (Histamine H1 receptor): > 10000 nM

O=C(c1ccc(OCCCc2cnc[nH]2)cc1)C1CC1
Ki (Histamine H2 receptor): > 10000 nM | Ki (Hrh3 protein): 0.654 nM and 0.427 nM | Ki (Histamine H1 receptor): > 10000 nM

CN(C)[C@@H]1CCN(CCCOc2ccc(-c3ccc(C#N)cc3)cc2)C1 [A-331440]
Ki (Histamine H2 receptor): > 10000 nM | Ki (Hrh3 protein): 21.7 nM and 6.28 nM | Ki (Histamine H3 receptor): 22.7 nM and 3.24 nM | Ki (Histamine H4 receptor): > 10000 nM

O=C(CCCCC1CCCCC1)N1CCC(c2c[nH]cn2)CC1
Ki (Histamine H2 receptor): 7200 nM | Ki (Hrh3 protein): 25.8 nM | Ki (Histamine H3 receptor): 499 nM and 136 nM | Ki (Histamine H1 receptor): 2560 nM | Ki (Histamine H4 receptor): 734 nM
